Experimental data reported in publication PMC8244865, “Recruitment of phospholipase Cγ1 to the non-structural membrane protein pK15 of Kaposi Sarcoma-associated herpesvirus promotes its Src-dependent phosphorylation” (PLoS Pathogens, 2021).

Assays:
PLCγ1 cSH2 = target: T1, PLCγ1 cSH2 (Homo sapiens, UniProt P19174); test: 1H,15N HSQC NMR titration, PLCγ1 cSH2; format: binding; conditions: 1H-15N HSQC titration, 600 MHz, 298 K, 100 μM protein, 100 mM MES, 150 mM NaCl, 3 mM TCEP, pH 6.5
T1 construct: cSH2 (668–790): 166 ± 30 nM; thioredoxin (pETM22 fusion, purified on Ni column) (N, cleaved yes); made in house; host or cells: E. coli BL21(DE3)
T1 sequence (P19174 668-790): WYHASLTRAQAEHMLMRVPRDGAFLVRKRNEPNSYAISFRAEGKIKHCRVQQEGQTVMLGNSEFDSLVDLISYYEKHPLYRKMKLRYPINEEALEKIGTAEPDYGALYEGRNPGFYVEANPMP
Method: Fig 5 Affinity of pK15 peptide for PLCγ1 tSH2 or individual SH2 domains. (A) Binding curves of several PLCγ1 fragments in the presence of 200 nM 5,6-FAM-labelled pK15 (12mer). All measurements were performed in triplicate. […] (B and C) Overlay of ^1H,^15N HSQC NMR spectra of nSH2 (B) and cSH2 (C) alone (in yellow) and in the presence of 2 molar equivalents of the pK15 12mer peptide (blue), measured with a 600 MHz spectrometer at 298 K. The protein concentration was 100 μM and the buffer contained 100 mM MES, 150 mM NaCl, 3 mM TCEP, pH 6.5. (D and E) Excerpts from ^1H-^15N HSQC spectra of nSH2 (D) and cSH2 (E) upon addition of increasing concentrations of the pK15 12mer peptide.
Next, we used Nuclear Magnetic Resonance (NMR) spectroscopy to further compare the interaction of the phosphorylated pK15 12mer to the isolated nSH2 and cSH2 domains (Fig 5B–5E). We recorded ^1H-^15N HSQC spectra of each of the two domains in the presence of increasing concentrations of the pK15 peptide. […] In light of this, it is conceivable that the preference of pK15 CT for cSH2 in vivo may be determined by kinetic rather than thermodynamic factors.
NMR experiments were recorded at 298 K on a 600-MHz Bruker Avance III-HD spectrometer equipped with an inverse HCN cryogenic probehead (nitrogen-cooled) and running Topspin 3.2 software. […] NMR data were processed in Topspin and analysed in CcpNmr Analysis v2.4 [74].

[1] = test system: PLCγ1 tSH2 domain (Src-mediated phosphorylation, Y^783); test: in vitro Src kinase assay, 35mer-enhanced PLCγ1 tSH2 phosphorylation; format: biochemical; conditions: 1.25–5.0 μM 12mer, 2.5 μM 35mer, 0.085 μM Src, 45 min, 37°C; pY783 Western blot
Method: Fig 7 The pK15 CT domain enhances Src-mediated phosphorylation of the PLCγ1 tSH2 domain. (A) The purified PLCγ1 tSH2 domain (0.6 μM) was incubated with limiting amounts (0.085 μM) of recombinant purified Src kinase expressed in insect cells in the presence of increasing concentrations (1.25–5 μM) of phosphorylated peptides representing the last 12 (pK15 12mer) or 35 (pK15 35mer) amino acids of the pK15 cytoplasmic domain for 1 hour at 37°C. The reaction was stopped using SDS sample buffer and analysed by SDS-PAGE and Western blot using an antibody to the PLCγ1 pY^783 residue (top panel) or to the His tag on the recombinant tSH2 domain (bottom panel). […]
To test the impact of a pK15 CT fragment (pK15 CT^N2) or phosphorylated pK15 peptides representing the last 12 (DDLp[…]) or 35 ([…]pYEEVLFRN) amino acids of pK15 CT on the Src-mediated phosphorylation of the PLCγ1 tSH2 domain, GST-pK15CT^N2 was first phosphorylated with Src in vitro as described in the preceding paragraph. […] The reaction mix was then analysed by Western blot using an antibody to the phosphorylated Y^783 in the linker region of the PLCγ1 tSH2 domain and an antibody to the 5x His tag. […] Following a 45 min incubation at 37°C, the reaction mixture was analysed by Western blot as above.

With “DDLpYEEVLFPRN [pK15 12mer, phosphorylated peptide representing the last 12 amino acids of pK15 CT (DDLp…)]” the NMR exchange regime (PLCγ1 cSH2) was “fast exchange regime” and the “inhibition of 35mer-induced tSH2 phosphorylation” value [1] was “could inhibit the increased PLCγ1 tSH2 phosphorylation induced by the 35mer peptide”.
